Test results from the NIST ThermoML archive (doi:10.1021/je050209y).

Legend:
[1] = 298.15 K; 101.33 kPa; Liquid
[2] = xn = mol fraction of the nth substance listed; details: 298.15 K, 101.33 kPa, Liquid

CNC=O [N-methylformamide]
[1]
Details | mass density [kg/m3] | viscosity [mPa·s]
– | 998.8 | 1.681

CNC=O [N-methylformamide] + CN(C)C=O
[2]
Details | mass density [kg/m3] | viscosity [mPa·s]
x2 = 0.0497 | 995.4 | 1.618
x2 = 0.0997 | 991.9 | 1.524
x2 = 0.2002 | 985.5 | 1.373
x2 = 0.2999 | 979.4 | 1.274
x2 = 0.4001 | 973.6 | 1.171
x2 = 0.4999 | 968.1 | 1.085
x2 = 0.5999 | 963 | 1.006
x2 = 0.699 | 958 | 0.947
x2 = 0.8001 | 953.2 | 0.897
x2 = 0.9001 | 948.6 | 0.855
x2 = 0.95 | 946.4 | 0.84

CNC=O [N-methylformamide] + O
[2]
Details | mass density [kg/m3] | viscosity [mPa·s]
x1 = 0.0504 | 1003.2 | 1.174
x1 = 0.1001 | 1008.9 | 1.422
x1 = 0.2 | 1014.6 | 1.793
x1 = 0.2998 | 1016.3 | 2.001
x1 = 0.4002 | 1015.1 | 2.067
x1 = 0.4996 | 1012.2 | 2.04
x1 = 0.5996 | 1009.4 | 1.961
x1 = 0.6994 | 1006.1 | 1.878
x1 = 0.7999 | 1003.7 | 1.794
x1 = 0.8983 | 1000.9 | 1.734
x1 = 0.9498 | 999.7 | 1.707

CN(C)C=O [dimethylformamide]
[1]
Details | mass density [kg/m3] | viscosity [mPa·s]
– | 944.2 | 0.799

CN(C)C=O [dimethylformamide] + O
[2]
Details | mass density [kg/m3] | viscosity [mPa·s]
x1 = 0.05 | 996 | 1.31
x1 = 0.1001 | 996.8 | 1.728
x1 = 0.2 | 995.1 | 2.346
x1 = 0.299 | 991.6 | 2.491
x1 = 0.3998 | 984.4 | 2.273
x1 = 0.4997 | 975.9 | 1.878
x1 = 0.5993 | 968.4 | 1.532
x1 = 0.6995 | 960.7 | 1.243
x1 = 0.8 | 954.9 | 1.045
x1 = 0.8991 | 949.1 | 0.901
x1 = 0.9488 | 946.9 | 0.843
